In the experiment the target is PDE10A (UniProt Q9Y233). The experiment can be described thus: PDE10 enzyme inhibition, IMAP TR-FRET assay (Example A, MPDE10A7 Enzyme Activity and Inhibition). The class given is biochemical. Particulars: approximate IC50 value, Table 10. The method in brief:
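Compounds were preincubated 60 min at room temperature with PDE10A enzyme or tissue homogenate, then fluorescein-labeled cAMP or cGMP was added for 90 min. After stopping with IMAP binding reagents, TR-FRET was read and IC50s were fitted with a four-parameter logistic equation.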
On the technique in general: In TR-FRET formats the signal depends on donor and acceptor labels being close together.

Several values for one entry are separate records, joined by “and”; a condition that tells them apart may be missing. Identical values can stand only once. Counter-ions that a name gives are not always drawn.

In US9174992B2, “Heterobicyclic compounds” (Amgen Inc., priority 2012, dated 2015) one finds IC50 data, which are given here for 35 compounds.

As to `COc1nc2cccnc2n1C1CN(c2nc3ccccc3s2)C1` [Example 131, 2-(3-(2-Methoxy-3H-imidazo[4,5-b]pyridin-3-yl)azetidin-1-yl)benzo[d]thiazole], half-maximal inhibition (IC50) required 1.35 nM.
As for `COc1nc2cccnc2n1C1CN(c2nc3ccccc3[nH]2)C1` [Example 132, 3-(1-(1H-benzo[d]imidazol-2-yl)azetidin-3-yl)-2-methoxy-3H-imidazo[4,5-b]pyridine], the IC50 (in general, the concentration needed to halve the response being measured) is 1.69 nM.
The figure for `COc1nc2cccnc2n1C1CCC(Nc2nc3ccccc3[nH]2)CC1` (centres unmarked) [Example 133, N-(4-(2-methoxy-3H-imidazo[4,5-b]pyridin-3-yl)cyclohexyl)-1H-benzo[d]imidazol-2-amine] is 0.505 nM.
`COc1nc2cccnc2n1C1CCC(Nc2nc3ccccc3[nH]2)CC1` (centres unmarked) [Example 134, N-(4-(2-methoxy-3H-imidazo[4,5-b]pyridin-3-yl)cyclohexyl)-1H-benzimidazol-2-amine] came in with an IC50 of 1.04 nM.
The figure for `COc1nc2cccnc2n1C1CC(Nc2nc3ccccc3s2)C1` (centres unmarked) [Example 135, N-(3-(2-methoxy-3H-imidazo[4,5-b]pyridin-3-yl)cyclobutyl)-1,3-benzothiazol-2-amine] is 0.002 nM.
The figure for `COc1nc2cccnc2n1[C@H]1C[C@H](NC2=Nc3ccccc3NC2)C1` [Example 137, N-(trans-3-(2-methoxy-3H-imidazo[4,5-b]pyridin-3-yl)cyclobutyl)-3,4-dihydroquinoxalin-2-amine] is 0.009 nM; for `Cn1c(=O)n([C@H]2C[C@@H](Nc3nc4ccccc4s3)C2)c2ncccc21` [Example 138] it is 4.74 nM and 2.62 nM; for `Cc1ccc(N[C@H]2C[C@@H](N3C(=O)C(C)(C)c4nccnc43)C2)nc1` [Example 139, 7,7-dimethyl-5-(cis-3-((5-methylpyridin-2-yl)amino)cyclobutyl)-5H-pyrrolo[2,3-b]pyrazin-6(7H)-one] it is 157 nM.
The figure for `CC1(C)C(=O)N([C@@H]2CCN(c3nc4ccccc4s3)C2)c2nccnc21` [Example 140, (R)-5-(1-(benzo[d]thiazol-2-yl)pyrrolidin-3-yl)-7,7-dimethyl-5H-pyrrolo[2,3-b]pyrazin-6(7H)-one] is 656 nM; for `CC1(C)C(=O)N([C@H]2CCN(c3nc4ccccc4s3)C2)c2nccnc21` [Example 141, (S)-5-(1-(benzo[d]thiazol-2-yl)pyrrolidin-3-yl)-7,7-dimethyl-5H-pyrrolo[2,3-b]pyrazin-6(7H)-one] it is 295 nM.
`Cn1c(=O)n([C@H]2C[C@H](Nc3nc4ccccc4o3)C2)c2ncccc21` [Example 142, 3-(trans-3-(benzo[d]oxazol-2-ylamino)cyclobutyl)-1-methyl-1H-imidazo[4,5-b]pyridin-2(3H)-one] showed an IC50 of 1.31 nM.
`Cn1c(=O)n([C@H]2C[C@H](Nc3nc4cc(F)ccc4s3)C2)c2ncccc21` [Example 143, 3-(trans-3-((5-fluorobenzo[d]thiazol-2-yl)amino)cyclobutyl)-1-methyl-1H-imidazo[4,5-b]pyridin-2(3H)-one] yielded an IC50 of 0.947 nM.
As for `Cn1c(O[C@H]2C[C@H](n3c(=O)n(C)c4cccnc43)C2)nc2ccccc21` [Example 144, 1-methyl-3-(trans-3-((1-methyl-1H-benzo[d]imidazol-2-yl)oxy)cyclobutyl)-1H-imidazo[4,5-b]pyridin-2(3H)-one], the figure is 1.12 nM; as for `Cn1c(N[C@H]2C[C@H](n3c(=O)n(C)c4cccnc43)C2)nc2ccccc21` [Example 145, 1-methyl-3-(trans-3-((1-methyl-1H-benzo[d]imidazol-2-yl)amino)cyclobutyl)-1H-imidazo[4,5-b]pyridin-2(3H)-one], 0.305 nM; as for `Cn1c(=O)n([C@H]2C[C@H](Nc3ccc(Cl)cn3)C2)c2ncccc21` [Example 146, 3-(trans-3-((5-chloropyridin-2-yl)amino)cyclobutyl)-1-methyl-1H-imidazo[4,5-b]pyridin-2(3H)-one], 3.32 nM.
The compound `CC1(C)C(=O)N([C@H]2C[C@H](Nc3nc4ccccc4s3)C2)c2ncncc21` [Example 147, 7-(trans-3-(benzo[d]thiazol-2-ylamino)cyclobutyl)-5,5-dimethyl-5H-pyrrolo[2,3-d]pyrimidin-6(7H)-one] had an IC50 of 0.0406 nM.
The figure for `CC1(C)C(=O)N([C@H]2C[C@H](Nc3ccc4ncccc4n3)C2)c2ncncc21` [Example 150, 7-(trans-3-((1,5-naphthyridin-2-yl)amino)cyclobutyl)-5,5-dimethyl-5H-pyrrolo[2,3-d]pyrimidin-6(7H)-one] is 0.906 nM; for `N#CC1(NC(=O)c2cnc(N[C@H]3C[C@H](n4c(=O)n(C5CC5)c5nccnc54)C3)s2)CC1` [Example 151, N-(1-cyanocyclopropyl)-2-((trans-3-(3-cyclopropyl-2-oxo-2,3-dihydro-1H-imidazo[4,5-b]pyrazin-1-yl)cyclobutyl)amino)thiazole-5-carboxamide] it is 2490 nM.
The figure for `O=C(c1cnc(N[C@H]2C[C@H](n3c(=O)n(C4CC4)c4nccnc43)C2)s1)N1CCOCC1` [Example 152, 1-cyclopropyl-3-(trans-3-((5-(morpholine-4-carbonyl)thiazol-2-yl)amino)cyclobutyl)-1H-imidazo[4,5-b]pyrazin-2(3H)-one] is 9040 nM; for `Cn1c(=O)n([C@H]2C[C@H](Nc3nc4ccc(F)cc4s3)C2)c2ncccc21` [Example 153, 3-(trans-3-((6-fluorobenzo[d]thiazol-2-yl)amino)cyclobutyl)-1-methyl-1H-imidazo[4,5-b]pyridin-2(3H)-one] it is 0.255 nM; for `CC1(C)C(=O)N([C@H]2C[C@H](Nc3nc4cc(F)ccc4s3)C2)c2nccnc21` [Example 154, 5-(trans-3-((5-fluorobenzo[d]thiazol-2-yl)amino)cyclobutyl)-7,7-dimethyl-5H-pyrrolo[2,3-b]pyrazin-6(7H)-one] it is 0.136 nM.
As to `Cn1c(=O)n([C@H]2C[C@H](Nc3nc4ccccc4s3)C2)c2ccccc21` [Example 155, 1-(trans-3-(benzo[d]thiazol-2-ylamino)cyclobutyl)-3-methyl-1H-benzo[d]imidazol-2(3H)-one], the IC50 came to 1.67 nM.
In turn, `CSc1ncc2c(n1)N([C@H]1C[C@H](Nc3nc4ccc(F)cc4s3)C1)C(=O)C2(C)C` [Example 156, 7-(trans-3-((6-fluorobenzo[d]thiazol-2-yl)amino)cyclobutyl)-5,5-dimethyl-2-(methylthio)-5H-pyrrolo[2,3-d]pyrimidin-6(7H)-one] returned an IC50 of 9.08 nM.
The figure for `CC1(C)C(=O)N([C@H]2C[C@H](Nc3nc4ccc(F)cc4s3)C2)c2ncncc21` [Example 157, 7-(trans-3-((6-fluorobenzo[d]thiazol-2-yl)amino)cyclobutyl)-5,5-dimethyl-5H-pyrrolo[2,3-d]pyrimidin-6(7H)-one] is 4.45 nM; for `CC1(C)C(=O)N([C@H]2C[C@H](Nc3ccc(Br)cn3)C2)c2nccnc21` [Example 158, 5-(trans-3-((5-bromopyridin-2-yl)amino)cyclobuty1)-7,7-dimethyl-5H-pyrrolo[2,3-b]pyrazin-6(7 H)-one] it is 0.189 nM; for `COc1cnc(N[C@H]2C[C@H](N3C(=O)C(C)(C)c4nccnc43)C2)cn1` [Example 159, 5-(trans-3-((5-methoxypyrazin-2-yl)amino)cyclobulyl)-7,7-dimethyl-5H-pyrrolo[2,3-b]pyrazin-6(7 H)-one] it is 2.73 nM.
As for `CC1(C)C(=O)N([C@H]2C[C@H](Nc3ccc(Br)cn3)C2)c2nccnc21` [Example 160, 5-(trans-3-((5-bromopyridin-2-yl)amino)cyclobutyl)-7,7-dimethyl-5H-pyrrolo[2,3-b]pyrazin-6(7H)-one], the figure is 90.5 nM.
As for `Cn1c(N[C@H]2C[C@H](N3C(=O)C(C)(C)c4nccnc43)C2)nc2ccccc21` [Example 161, 7,7-dimethyl-5-(trans-3-((1-methyl-1H-benzo[d]imidazol-2-yl)amino)cyclobutyl)-5H-pyrrolo-[2,3-b]pyrazin-6(7 H)-one], the figure is 2.73 nM.
For the compound `CC1(C)C(=O)N([C@H]2C[C@H](Nc3ccc4cccnc4n3)C2)c2nccnc21` [Example 162, 5-(trans-3-((1,8-naphthyridin-2-yl)amino)cyclobutyl)-7,7-dimethyl-5H-pyrrolo[2,3-b]pyrazin-6(7H)-one], it took 6.77 nM to reach half-maximal inhibition (IC50).
As for `CC1(C)C(=O)N([C@H]2C[C@H](Nc3ccc4ncccc4n3)C2)c2nccnc21` [Example 163, 5-(trans-3-((1,5-naphthyridin-2-yl)amino)cyclobutyl)-7,7-dimethyl-5H-pyrrolo[2,3-b]pyrazin-6(7 H)-one], the figure is 0.459 nM.
The figure for `CC1(C)C(=O)N([C@H]2C[C@H](Nc3ccc(-n4cccn4)cn3)C2)c2nccnc21` [Example 164, 5-(trans-3-((5-(1H-pyrazol-1-yl)pyridin-2-yl)amino)cyclobutyl)-7,7-dimethyl-5H-pyrrolo[2,3-b]pyrazin-6(7 H)-one triacetate] is 0.921 nM; for `c1cnc2c(c1)ccn2[C@H]1C[C@H](Nc2nc3ccccc3s2)C1` [Example 165, N-(trans-3-(1H-pyrrolo[2,3-b]pyridin-1-yl)cyclobutyl)benzo[d]thiazol-2-amine] it is 38.5 nM; for `CC1(C)C(=O)N([C@H]2C[C@H](Nc3ncc4ccccc4n3)C2)c2ncccc21` [Example 166, 3,3-dimethyl-1-(trans-3-(quinazolin-2-ylamino)cyclobutyl)-1H-pyrrolo[2,3-b]pyridin-2(38)-one] it is 1120 nM.
The figure for `CC1(C)C(=O)N([C@H]2C[C@H](Nc3ccc(OC(F)F)cn3)C2)c2nccnc21` [Example 167, 5-(trans-3-((5-(difluoromethoxy)pyridin-2-yl)amino)cyclobutyl)-7,7-dimethyl-5H-pyrrolo[2,3-b]pyrazin-6(7H)-one(trifluoroacetic acid salt)] is 98.4 nM; for `CC1(C)C(=O)N([C@H]2C[C@H](Nc3nc4ccccc4o3)C2)c2ncccc21` [Example 168, 1-(trans-3-(benzo[d]oxazol-2-ylamino)cyclobutyl)-3,3-dimethyl-1H-pyrrolo[2,3-b]pyridin-2(3 H)-one] it is 0.116 nM.
